Measurements as given in patent publication US20250367164A1, “THERAPEUTIC COMPOSITIONS FOR SKIN DISORDERS AND WOUND REPAIR” (UNIVERSITY OF MIAMI, priority 2022, published 2025).

How the values were obtained:
[1] = tested on: 5-mm round excisional dorsal wounds of db/db mice; assay: Splinted excisional wound healing in db/db mice treated with hydrogel scaffolds; format: in vivo; details: FIG. 10
Experimental: All animal care and use procedures were approved by the University of Miami Institutional Animal Care and Use Committee (IACUC #19-097). Under anesthesia, 12×7-weeks of age female db/db mice had their dorsal skin hair clipped, depilated and their fasting blood glucose level measured for 3 consecutive days, to validate hyperglycemia (>300 mg/dL was deemed as hyperglycemic). Subsequently, mice's dorsal skin was cleaned with antiseptic solution and four 5-mm round excisional wounds were made, two on each side of the dorsal midline (n=8 wounds per treatment). Dorsal wounds were treated with cylindrical hydrogel scaffolds of 8 mm×2 mm for either 7 or 16 days. Same hydrogel scaffold fabrication procedure was employed (as previously described) and with the same treatment and control formulations as the ex vivo human skin wound models. Scaffolds were fixed on top of the wounds with 14-mm square splints containing a 10 mm circular central opening. Cyanoacrylate glue was used to secure the splints just long enough for 4 non-continuous sutures to adhere the […] to the wound and prevent wound contraction. […] Diabetic mice wounds' closure rate was assessed by histologically analyzing re-epithelialization and epidermal thickness through H&E staining with an Olympus VS120 microscope (Olympus, Tokyo, JPN) and Image J software (NIH, MD, USA). […]

MRSA USA300 = assay: In vitro MRSA internalization in human keratinocytes; format: cell-based, MRSA USA300 in primary human keratinocytes
Experimental: For all internalization assays, MRSA USA300 strain was used. In vitro pathogen internalization: Primary human keratinocytes were seeded at 5×10^4 in triplicates and allowed to adhere overnight. The following day, they were inoculated with MRSA USA300 conjugated to a pH sensitive dye (pHrodo iFL STP ester, Life Technologies) at 1×10^6 CFU/ml for 1 hr in presence or absence of 1 mM MβCD, prior to washing with PBS. They were then either subject to live cell imaging or washed with lysostaphin for 1 hr (in order to kill any extracellular bacteria), lysed in hypotonic solution and seeded onto blood agar plates in serial dilutions in order to determine relative CFU counts. Ex vivo human skin: Human skin specimens from reduction surgery were obtained and wounded. Briefly, using a biopsy punch 4-mm acute wounds were made in the skin specimens (n=4 per treatment), and either pre-treated in presence or absence of 2 mM MβCD, followed by inoculation with 10 ul of MRSA 10^8 CFU/ml for 24 hrs. Skin was then washed with PBS, incubated with lysostaphin for Ihr in order to kill any extracellular bacteria, lysed with hypotonic solution and subsequent lysate seeded onto blood agar plates in serial dilutions. […]

VEGF = VEGF ELISA on snap frozen mouse wounds; format: in vivo, mice; details: same mouse wounds, FIG. 14
Experimental: Amount of VEGF in snap frozen mouse wounds was analyzed using VEGF ELISA as per manufacturer's instructions. Up to 8 wounds were utilized per condition in duplicates and amount of VEGF quantified using internal standards provided by the kit.
ELISA was used to measure levels of VEGF from the same wounds in order to validate that the upregulation at the mRNA level coincides with increased VEGF protein level.

With platelet derived growth factor [PDGF] the “wound closure at the conclusion of the experiment” value [1] was “not fully closed”.

With methyl-β-cyclodextrin [MβCD] the “CFU counts of internalized bacteria” value (MRSA USA300; Cav1 overexpressing and Cav1 knockout human keratinocytes, cell lysate on blood agar plates) was “lowered the CFU counts” and the “intracellular MRSA” value (MRSA USA300; treatment administered after MRSA infection, keratinocytes) was “expelled a majority of intracellular MRSA”.

In the case of hydroxypropyl-β-cyclodextrin [HβCD], the “levels of VEGF” value (VEGF) is reported as “increased levels of VEGF”.
